Measurements taken from the NIST ThermoML archive (doi:10.1021/je200851a).

Assay: excess molar enthalpy (molar enthalpy of mixing); xn = mol fraction of the nth substance listed
Details: 298.15 K, 101 kPa, Liquid, Calvet calorimetry

CCCCCCCCC [nonane] + CCO
Details	excess molar enthalpy [kcal/mol]
x2 = 0.0507	0.087
x2 = 0.1378	0.132
x2 = 0.2453	0.156
x2 = 0.4164	0.168
x2 = 0.5022	0.162
x2 = 0.586	0.156
x2 = 0.6518	0.151
x2 = 0.6895	0.143
x2 = 0.749	0.13
x2 = 0.7877	0.12
x2 = 0.8433	0.1
x2 = 0.8715	0.0899
x2 = 0.9065	0.0715
x2 = 0.9296	0.0574
x2 = 0.9562	0.0387
